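Cells were grown in 96-well plates and exposed to each compound for 48 hours at five concentrations; endpoints were interpolated linearly between bracketing concentrations, or set to the highest concentration if not reached. At the GI50, growth is halved.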 Active and inactive are the calls of the source. No stated cut-off is given here; in the data, active = GI50 up to about 1.1 µM and inactive = higher.
Assays:
Assay in all cases: NCI-60 cell line screen, 48 h
RPMI-8226 = tested on: RPMI-8226
SK-MEL-2 = tested on: SK-MEL-2
A498 = tested on: A498
Hs-578T = tested on: Hs-578T
HT-29 = tested on: HT-29
OVCAR-8 = tested on: OVCAR-8
A549 = tested on: A549
SF-539 = tested on: SF-539
DU-145 = tested on: DU-145
NCI-H460 = tested on: NCI-H460
NCI-H23 = tested on: NCI-H23
SW-620 = tested on: SW-620
UACC-62 = tested on: UACC-62
SF-295 = tested on: SF-295
M14 = tested on: M14
SK-MEL-5 = tested on: SK-MEL-5
OVCAR-5 = tested on: OVCAR-5
LOX IMVI = tested on: LOX IMVI
SK-MEL-28 = tested on: SK-MEL-28

Measured: GI50

O=C(NCCC1([N+](=O)[O-])CCN(C(=O)c2ccccc2)CC1)c1ccccc1
inactive: RPMI-8226 58.7 µM | SK-MEL-2 > 100 µM | A498 > 100 µM | Hs-578T > 100 µM | HT-29 45.6 µM | OVCAR-8 > 100 µM | A549 > 100 µM | SF-539 > 100 µM | DU-145 > 100 µM | NCI-H460 35.3 µM | NCI-H23 > 100 µM | SW-620 > 100 µM | UACC-62 57.4 µM | SF-295 > 100 µM | M14 > 100 µM | SK-MEL-5 37.2 µM | OVCAR-5 > 100 µM

CO[P@@]1(=O)O[C@@H](c2ccccc2)[C@H](O)[C@]1(O)c1ccccc1
inactive: RPMI-8226 > 100 µM | SK-MEL-2 > 100 µM | A498 > 100 µM | Hs-578T > 100 µM | HT-29 34 µM | OVCAR-8 > 100 µM | A549 > 100 µM | SF-539 > 100 µM | LOX IMVI > 100 µM | DU-145 > 100 µM | NCI-H460 > 100 µM | NCI-H23 > 100 µM | SW-620 > 100 µM | UACC-62 > 100 µM | SK-MEL-28 > 100 µM | SF-295 > 100 µM | M14 > 100 µM | SK-MEL-5 > 100 µM

CCOC(=O)c1cc2c3c(c(C(C)=O)c(O)c2[nH]1)N(CC(C)CC)CC3 (stereo not drawn)
inactive: RPMI-8226 36.1 µM | SK-MEL-2 > 100 µM | A498 80.9 µM | Hs-578T 8.97 µM | HT-29 > 100 µM | OVCAR-8 61.7 µM | A549 62.8 µM | SF-539 70 µM | LOX IMVI 42.2 µM | DU-145 > 100 µM | NCI-H460 > 100 µM | NCI-H23 44.9 µM | SW-620 > 100 µM | UACC-62 71.6 µM | SK-MEL-28 > 100 µM | SF-295 45 µM

CCOC(=O)C1=C(Cl)c2cccnc2C1=O
inactive: RPMI-8226 87.3 µM | SK-MEL-2 > 100 µM | A498 > 100 µM | Hs-578T 27.7 µM | HT-29 81.7 µM | A549 55.7 µM | SF-539 82.6 µM | LOX IMVI 23.7 µM | DU-145 21.5 µM | NCI-H460 > 100 µM | NCI-H23 16.4 µM | SW-620 30.3 µM | UACC-62 > 100 µM | SK-MEL-28 > 100 µM | SF-295 39.4 µM | M14 54.2 µM | SK-MEL-5 53.6 µM

Source: ChEMBL document CHEMBL1201862, “PubChem BioAssay data set” (2004)
